Values quoted from earlier work in paper PMC3483082 (Chembiochem : a European journal of chemical biology, 2012).

Legend:
[1] = system: CDK1; conditions: read-out: IC50 CDK1
[2] = system: CDK2; conditions: read-out: IC50 (CDK2 inhibitor)

Compound	IC50 [1]	IC50 [2]
CCN(CC)CCNC(=O)c1c(C)[nH]c(/C=C2\C(=O)Nc3ccc(F)cc32)c1C [Hit 1, sunitinib]	2600 nM	
